Assay results published in publication PMC3140938 (Analytical and Bioanalytical Chemistry, 2011).
Entries after “also recorded” stand apart in the source; their conditions may differ. Like-named read-outs stand apart in the source and are kept apart here.

Key:
[1] = target: T1, hGRα (Homo sapiens, UniProt P04150); assay: cell-based; assay type: cell-based; conditions: for RCP (relative corticoid potency): ratio EC50 of dexamethasone / EC50 of compound
T1 sequence (P04150 1-777): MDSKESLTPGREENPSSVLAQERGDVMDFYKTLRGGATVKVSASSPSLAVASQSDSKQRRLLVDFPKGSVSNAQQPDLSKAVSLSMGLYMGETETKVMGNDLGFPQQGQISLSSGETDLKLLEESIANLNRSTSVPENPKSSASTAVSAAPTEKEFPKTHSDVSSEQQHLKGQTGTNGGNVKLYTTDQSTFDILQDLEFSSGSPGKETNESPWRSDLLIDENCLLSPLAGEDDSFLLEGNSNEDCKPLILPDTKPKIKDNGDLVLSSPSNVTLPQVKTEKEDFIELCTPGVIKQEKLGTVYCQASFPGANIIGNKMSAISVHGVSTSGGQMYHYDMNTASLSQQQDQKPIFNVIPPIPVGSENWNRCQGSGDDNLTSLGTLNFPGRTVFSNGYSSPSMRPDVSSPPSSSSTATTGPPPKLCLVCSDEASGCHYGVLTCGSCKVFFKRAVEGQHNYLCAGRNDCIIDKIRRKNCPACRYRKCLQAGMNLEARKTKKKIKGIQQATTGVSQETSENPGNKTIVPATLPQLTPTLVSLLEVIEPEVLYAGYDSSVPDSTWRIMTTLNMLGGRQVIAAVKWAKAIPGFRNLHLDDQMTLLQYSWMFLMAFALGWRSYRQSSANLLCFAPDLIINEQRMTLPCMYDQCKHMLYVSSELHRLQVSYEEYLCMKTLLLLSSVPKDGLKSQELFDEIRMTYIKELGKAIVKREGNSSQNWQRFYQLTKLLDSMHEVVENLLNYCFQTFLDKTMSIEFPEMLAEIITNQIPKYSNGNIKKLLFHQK

[2] = target: T2, human glucocorticoid receptor alpha (hGRα) (Homo sapiens, UniProt P04150); assay: cell-based; assay type: cell-based
T2 sequence (P04150 1-777): T1 sequence (P04150 1-777)

[3] = test system: PR; conditions: yeast-based PR bioassay; cited from earlier work
[4] = target: T1, hGRα; assay type: cell-based; conditions: GR-CALUX, co-exposure with 1 or 10 nM dexamethasone
[5] = target: T2, human glucocorticoid receptor alpha (hGRα); assay type: cell-based; conditions: yeast
[6] = test system: AR; conditions: U2-OS-based CALUX analogue (AR); cited from earlier work
[7] = test system: AR; conditions: yeast-based AR bioassay; cited from earlier work
[8] = co-exposure with 150 or 500 μM dexamethasone
[9] = GR-CALUX, agonism, 24 h exposure
[10] = co-exposure with budesonide (5 or 50 μM)

With `C[C@H]1C[C@H]2[C@@H]3CCC4=CC(=O)C=C[C@]4(C)[C@@]3(F)[C@@H](O)C[C@]2(C)[C@@]1(O)C(=O)CO` [Betamethasone, betamethasone] the “agonistic response (luciferase activity), in words” value [1] was “dose-related increase in luciferase activity” and the “agonistic response (production of yEGFP), in words” value [2] was “dose-related increase in the production of yEGFP”.
In the case of `C[C@]12C=CC(=O)C=C1CC[C@H]1[C@@H]3C[C@@H](O)[C@](O)(C(=O)CO)[C@@]3(C)C[C@H](O)[C@@]12F` [Triamcinolone, triamcinolone], the EC50 [1] is reported as 19 nM, the “RCP (relative corticoid potency)” value ([1]; GR-CALUX) is reported as 0.1 and the EC50 [2] is reported as “Active^a”. The “RCP (relative corticoid potency)” value [2] was “Active”.
With `CC(=O)OCC(=O)[C@@]1(O)CC[C@H]2[C@@H]3CCC4=CC(=O)CC[C@]4(C)[C@@]3(F)[C@@H](O)C[C@@]21C` [Fludrocortisone-21-acetate, fludrocortisone-21-acetate] the “agonistic response (luciferase activity), in words” value ([1]; compound alone, GR-CALUX) was “active” and the EC50 [2] was “Not active”.
With `CN(C)c1ccc([C@H]2C[C@@]3(C)[C@@H](CC[C@@]3(O)C#Cc3ccc(S(C)(=O)=O)cc3)[C@@H]3CCC4=CC(=O)CCC4=C32)cc1` [Org 34850] the “GR antagonism, in words” value [4] was “pure GR antagonist” and the “GR antagonism, in words” value [5, 8] was “only slightly acted as GR antagonists”.
With `C[C@]12CCC(=O)C=C1CC[C@@H]1[C@@H]2C(=O)C[C@@]2(C)[C@H]1CC[C@]2(O)C(=O)CO` [Cortisone, cortisone] the EC50 [1, 9] was “Not active”, the “agonistic response (luciferase activity), in words” value ([1]; compound alone, GR-CALUX) was “no response” and the “RCP (relative corticoid potency)” value ([1]; GR-CALUX) was 0. For the same molecule, the EC50 [2] was “Not active”, the “RCP (relative corticoid potency)” value [2] was 0.0 and the “agonistic response (production of yEGFP), in words” value [2] was “no response”.
For `C[C@]12C[C@H](O)[C@H]3[C@@H](CCC4=CC(=O)CC[C@@]43C)[C@@H]1CC[C@@H]2C(=O)CO` [Corticosterone, corticosterone], the EC50 [1] was 80 nM, the “agonistic response (luciferase activity), in words” value ([1]; compound alone, GR-CALUX) was “dose-related increase in luciferase activity” and the “RCP (relative corticoid potency)” value ([1]; GR-CALUX) was 0.03. The “RCP (relative corticoid potency)” value [2] was 1.7, the “agonistic response (production of yEGFP), in words” value [2] was “dose-related increase in the production of yEGFP” and the EC50 ([2]; EC50) was 71000 nM.
With `C[C@@H]1C[C@H]2[C@@H]3CCC4=CC(=O)C=C[C@]4(C)[C@@]3(F)[C@@H](O)C[C@]2(C)[C@@]1(O)C(=O)CO` [Dexamethasone, dexamethasone] the “agonistic response (luciferase activity), in words” value [1] was “dose-related increase in luciferase activity” and the “agonistic response (production of yEGFP), in words” value [2] was “dose-related increase in the production of yEGFP”.
In the case of `C[C@]12CC[C@@H]3c4ccc(O)cc4CC[C@H]3[C@@H]1CC[C@@H]2O` [17β-Estradiol (E2), 17β-estradiol], the EC50 [1, 9] is reported as “Not active”, the “RCP (relative corticoid potency)” value ([1]; GR-CALUX) is reported as 0 and the EC50 [2] is reported as “Not active”. The “RCP (relative corticoid potency)” value [2] was 0.0 and the “agonistic response (production of yEGFP), in words” value [2] was “no agonistic response”.
With `C[C@]12CCC(=O)C[C@@H]1CC[C@@H]1[C@@H]2CC[C@]2(C)[C@@H](O)CC[C@@H]12` [5α-Dihydrotestosterone, 5α-dihydrotestosterone] the EC50 [1] was “Not active”.
In the case of `C[C@]12CCC(=O)C=C1CC[C@@H]1[C@@H]2[C@@H](O)C[C@@]2(C)[C@H]1CC[C@]2(O)C(=O)CO` [Cortisol, cortisol], the “agonistic response (luciferase activity), in words” value ([1]; compound alone, GR-CALUX) is reported as “dose-related increase in luciferase activity” and the “agonistic response (production of yEGFP), in words” value [2] is reported as “dose-related increase in the production of yEGFP”.
In the case of `CCCC1O[C@@H]2C[C@H]3[C@@H]4CCC5=CC(=O)C=C[C@]5(C)[C@H]4[C@@H](O)C[C@]3(C)[C@]2(C(=O)CO)O1` (stereo partly drawn) [Budesonide, budesonide], the “agonistic response (luciferase activity), in words” value ([1]; compound alone, GR-CALUX) is reported as “equally potent”, the “agonistic response (production of yEGFP), in words” value [2] is reported as “dose-related increase in the production of yEGFP; also recorded: much more potent than Dex” and the limit of detection [2] is reported as 0.5 µM.
For `Clc1ccc(Cl)c(-c2cc(Cl)cc(Cl)c2Cl)c1` [PCB92], the “agonistic response (production of yEGFP), in words” value [2] was “slight agonistic effect” and the “GR antagonism, in words” value [5, 10] was “acts as a GR antagonist”.
With `CC#C[C@]1(O)CC[C@H]2[C@@H]3CCC4=CC(=O)CCC4=C3[C@@H](c3ccc(N(C)C)cc3)C[C@@]21C` [Mifepristone, mifepristone] the EC50 [1] was “Not active^b”, the “GR antagonism, in words” value [4] was “pure GR antagonists” and the “GR antagonism, in words” value [5, 8] was “only slightly acted as GR antagonists”.
In the case of `Clc1ccc(-c2ccc(Cl)cc2Cl)c(Cl)c1` [PCB47], the “GR antagonism, in words” value [5, 10] is reported as “only act as GR antagonists”.
With `Clc1ccc(-c2c(Cl)cc(Cl)cc2Cl)c(Cl)c1` [PCB100] the “GR antagonism, in words” value [5, 10] was “only act as GR antagonists”.
With `C[C@]12CCC(=O)C=C1CC[C@@H]1[C@@H]2[C@@H](O)C[C@]2(C=O)[C@@H](C(=O)CO)CC[C@@H]12` [Aldosterone] the EC50 [1] was 495 nM, the “agonistic response (luciferase activity), in words” value ([1]; compound alone, GR-CALUX) was “dose-related increase in luciferase activity” and the “RCP (relative corticoid potency)” value ([1]; GR-CALUX) was 0.004. For the same molecule, the “RCP (relative corticoid potency)” value [2] was 0.2, the “agonistic response (production of yEGFP), in words” value [2] was “dose-related increase in the production of yEGFP” and the EC50 ([2]; EC50) was 705000 nM.
For `C[C@]12C=CC(=O)C=C1CC[C@@H]1[C@@H]2[C@@H](O)C[C@@]2(C)[C@H]1CC[C@]2(O)C(=O)CO` [Prednisolone, prednisolone], the “agonistic response (luciferase activity), in words” value [1] was “dose-related increase in luciferase activity” and the “agonistic response (production of yEGFP), in words” value [2] was “dose-related increase in the production of yEGFP”.
With `Clc1ccc(Cl)c(-c2cc(Cl)c(Cl)cc2Cl)c1` [PCB101] the “agonistic response (production of yEGFP), in words” value [2] was “agonistic effect that is almost comparable with that of triamcinolone and progesterone”, the “inhibition of the response caused by 5 μM budesonide, in words” value ([5]; co-exposure with 5 μM budesonide) was “almost fully inhibiting” and the “inhibition of the response caused by 50 μM budesonide” value ([5]; co-exposure with 50 μM budesonide) was 50%. The “GR antagonism, in words” value [5, 10] was “strongest GR antagonist”.
